Source: ChEMBL document CHEMBL5154941, “Structural Modifications of Nimodipine Lead to Novel PDE1 Inhibitors with Anti-pulmonary Fibrosis Effects” (J Med Chem, 2022)
The source made the active and inactive calls. No cut-off for these calls is given here.

Tests used:
[1] = Acute toxicity in overnight fasted KM mouse at 2000 mg/kg, po dosed daily for 14 days; format: organism-based; conditions: in vivo, 336 h, time 14 day
[2] = target: cAMP and cAMP-inhibited cGMP 3',5'-cyclic phosphodiesterase 10A (Homo sapiens, UniProt Q9Y233); assay: Inhibition of PDE10A (449 to 770 residues) (unknown origin) expressed in Escherichia coli BL21 using [3H]-cAMP as substrate measured for 15 mins by liquid scintillation counter method
cAMP and cAMP-inhibited cGMP 3',5'-cyclic phosphodiesterase 10A, sequence (Q9Y233 whole entry, the tested form may be a part): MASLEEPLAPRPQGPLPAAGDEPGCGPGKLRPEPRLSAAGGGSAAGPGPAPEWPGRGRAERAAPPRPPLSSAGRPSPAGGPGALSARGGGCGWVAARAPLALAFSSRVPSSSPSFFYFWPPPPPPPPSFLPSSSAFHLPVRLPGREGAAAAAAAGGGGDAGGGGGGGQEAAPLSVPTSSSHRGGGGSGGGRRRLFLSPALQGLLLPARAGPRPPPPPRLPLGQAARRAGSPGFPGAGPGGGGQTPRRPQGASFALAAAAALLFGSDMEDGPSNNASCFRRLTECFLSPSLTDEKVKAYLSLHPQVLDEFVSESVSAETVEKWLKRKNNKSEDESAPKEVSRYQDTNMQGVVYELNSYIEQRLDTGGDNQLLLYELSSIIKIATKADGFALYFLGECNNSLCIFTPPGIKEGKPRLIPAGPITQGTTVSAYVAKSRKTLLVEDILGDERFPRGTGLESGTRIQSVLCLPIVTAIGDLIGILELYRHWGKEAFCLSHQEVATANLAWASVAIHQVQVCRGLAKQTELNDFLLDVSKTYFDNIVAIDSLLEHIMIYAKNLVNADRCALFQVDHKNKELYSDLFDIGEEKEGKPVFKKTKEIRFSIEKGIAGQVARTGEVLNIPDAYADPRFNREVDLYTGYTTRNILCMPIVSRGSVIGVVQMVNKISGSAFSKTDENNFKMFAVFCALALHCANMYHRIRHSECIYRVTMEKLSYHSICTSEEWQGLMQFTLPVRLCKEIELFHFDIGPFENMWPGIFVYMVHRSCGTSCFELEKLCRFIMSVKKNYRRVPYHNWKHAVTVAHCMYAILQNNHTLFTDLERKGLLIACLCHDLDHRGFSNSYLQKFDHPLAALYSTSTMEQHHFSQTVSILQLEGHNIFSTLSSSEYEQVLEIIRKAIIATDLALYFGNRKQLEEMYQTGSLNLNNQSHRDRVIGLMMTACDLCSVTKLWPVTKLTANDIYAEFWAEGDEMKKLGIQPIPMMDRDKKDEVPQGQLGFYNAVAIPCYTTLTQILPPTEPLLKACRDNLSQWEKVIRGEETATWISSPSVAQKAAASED

[3] = target: Voltage-gated inwardly rectifying potassium channel KCNH2 (Homo sapiens, UniProt Q12809); assay: Inhibition of hERG ion channel expressed in CHO cells by automated patch clamp electrophysiology method; format: toxicity, cell-based
Voltage-gated inwardly rectifying potassium channel KCNH2, sequence (Q12809 whole entry): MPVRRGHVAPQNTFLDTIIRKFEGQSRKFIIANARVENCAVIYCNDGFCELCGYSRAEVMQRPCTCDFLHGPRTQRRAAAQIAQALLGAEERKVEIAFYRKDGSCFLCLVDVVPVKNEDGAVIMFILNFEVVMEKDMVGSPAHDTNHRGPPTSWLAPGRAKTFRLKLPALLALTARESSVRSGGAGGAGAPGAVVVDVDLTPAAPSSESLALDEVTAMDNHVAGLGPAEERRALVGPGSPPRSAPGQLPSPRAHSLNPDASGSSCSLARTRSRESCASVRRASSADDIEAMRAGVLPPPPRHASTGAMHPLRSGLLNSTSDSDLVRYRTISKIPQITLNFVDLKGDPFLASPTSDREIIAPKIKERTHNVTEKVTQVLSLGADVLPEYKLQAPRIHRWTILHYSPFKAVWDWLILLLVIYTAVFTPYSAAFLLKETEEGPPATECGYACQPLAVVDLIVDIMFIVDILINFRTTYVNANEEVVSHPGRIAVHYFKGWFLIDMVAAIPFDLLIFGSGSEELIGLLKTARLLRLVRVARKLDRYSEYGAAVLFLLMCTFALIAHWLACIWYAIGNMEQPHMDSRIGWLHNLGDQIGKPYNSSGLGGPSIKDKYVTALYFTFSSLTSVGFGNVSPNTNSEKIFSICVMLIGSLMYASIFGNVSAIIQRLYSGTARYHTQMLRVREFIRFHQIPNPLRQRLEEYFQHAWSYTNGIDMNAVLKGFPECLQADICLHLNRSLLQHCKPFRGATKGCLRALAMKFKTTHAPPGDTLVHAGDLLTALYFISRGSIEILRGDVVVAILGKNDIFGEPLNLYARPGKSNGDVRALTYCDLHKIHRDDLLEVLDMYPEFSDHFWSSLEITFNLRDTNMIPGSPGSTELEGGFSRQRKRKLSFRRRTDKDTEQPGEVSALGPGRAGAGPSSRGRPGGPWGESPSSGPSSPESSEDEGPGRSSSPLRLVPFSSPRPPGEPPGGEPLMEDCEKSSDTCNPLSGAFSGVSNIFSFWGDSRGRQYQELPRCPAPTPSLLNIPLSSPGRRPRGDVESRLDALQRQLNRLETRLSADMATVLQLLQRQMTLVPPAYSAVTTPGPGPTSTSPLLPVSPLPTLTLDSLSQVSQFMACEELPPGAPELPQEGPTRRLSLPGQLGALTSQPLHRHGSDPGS

[4] = AUC (0 to infinity) in Sprague-Dawley rat at 5 mg/kg, iv; format: ADME, organism-based; design: time infinity, dose 5 mg/kg, route iv; conditions: in vivo
[5] = target: 3',5'-cyclic-AMP phosphodiesterase 4B (Homo sapiens, UniProt Q07343); assay: Inhibition of PDE4B2 (152 to 487 residues) (unknown origin) expressed in Escherichia coli BL21 measured for 15 mins by liquid scintillation counter method
[6] = Volume of distribution at steady state in Sprague-Dawley rat at 5 mg/kg, iv; format: ADME, organism-based; conditions: in vivo, read-out: Vdss
Rattus norvegicus [7] = assay: Antifibrotic activity in bleomycin-induced Sprague-Dawley rat pulmonary fibrosis model assessed as decrease in enhanced pause at 2.5 to 5 mg/kg, ip administered daily for 28 days; format: functional, organism-based; conditions: dose 2.5-5 mg/kg, time 28.0 day
[8] = target: T1, cGMP-inhibited 3',5'-cyclic phosphodiesterase 3A (Homo sapiens, UniProt Q14432); assay: Inhibition of PDE3A (679 to 1087 residues) (unknown origin) expressed in Escherichia coli BL21 using [3H]-cAMP as substrate at 10000 nM measured for 15 mins by liquid scintillation counter method
T1 sequence (Q14432 whole entry, the tested form may be a part): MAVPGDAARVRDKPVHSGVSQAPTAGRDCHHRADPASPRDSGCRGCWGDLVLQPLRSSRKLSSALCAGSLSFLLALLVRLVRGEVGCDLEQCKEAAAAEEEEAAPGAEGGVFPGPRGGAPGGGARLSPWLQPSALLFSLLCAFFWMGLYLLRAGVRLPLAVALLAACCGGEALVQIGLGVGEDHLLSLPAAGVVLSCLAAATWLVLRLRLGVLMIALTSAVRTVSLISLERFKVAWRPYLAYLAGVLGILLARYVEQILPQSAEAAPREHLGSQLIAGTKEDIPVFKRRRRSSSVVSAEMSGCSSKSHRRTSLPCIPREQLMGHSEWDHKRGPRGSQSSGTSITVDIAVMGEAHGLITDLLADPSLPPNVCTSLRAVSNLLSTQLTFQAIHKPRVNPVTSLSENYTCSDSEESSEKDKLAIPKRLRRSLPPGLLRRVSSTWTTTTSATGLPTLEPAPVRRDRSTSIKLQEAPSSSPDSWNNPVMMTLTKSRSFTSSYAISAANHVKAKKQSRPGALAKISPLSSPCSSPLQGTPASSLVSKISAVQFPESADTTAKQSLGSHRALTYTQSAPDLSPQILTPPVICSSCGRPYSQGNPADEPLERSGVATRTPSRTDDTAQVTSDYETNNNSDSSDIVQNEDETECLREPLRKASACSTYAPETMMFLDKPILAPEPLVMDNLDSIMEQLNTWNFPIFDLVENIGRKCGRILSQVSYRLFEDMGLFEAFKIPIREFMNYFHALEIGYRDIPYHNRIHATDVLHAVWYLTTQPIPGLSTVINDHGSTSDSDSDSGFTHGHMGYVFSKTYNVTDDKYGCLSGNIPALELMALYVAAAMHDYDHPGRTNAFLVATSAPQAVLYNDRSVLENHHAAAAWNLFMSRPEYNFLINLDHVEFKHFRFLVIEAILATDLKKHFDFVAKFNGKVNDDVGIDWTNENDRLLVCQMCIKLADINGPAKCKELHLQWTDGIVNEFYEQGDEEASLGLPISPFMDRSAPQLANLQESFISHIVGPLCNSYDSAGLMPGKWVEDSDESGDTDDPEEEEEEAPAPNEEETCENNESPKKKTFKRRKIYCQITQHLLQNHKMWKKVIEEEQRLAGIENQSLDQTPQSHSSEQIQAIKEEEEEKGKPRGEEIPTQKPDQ

Rattus norvegicus [9] = assay: Antifibrotic activity in bleomycin-induced Sprague-Dawley rat pulmonary fibrosis model assessed as decrease in enhanced pause at 150 mg/kg, po administered daily for 28 days; format: functional, organism-based; conditions: time 28.0 day
Rattus norvegicus [10] = assay: Antifibrotic activity in bleomycin-induced Sprague-Dawley rat lung fibrosis model assessed as increase in cGMP level at 2.5 to 5 mg/kg, ip administered daily for 28 days by ELISA analysis; format: functional, organism-based; conditions: dose 2.5-5 mg/kg, time 28.0 day
Rattus norvegicus [11] = assay: Antifibrotic activity in bleomycin-induced Sprague-Dawley rat lung fibrosis model assessed as reduced septal enlargement at 5 mg/kg, ip administered daily for 28 days by hematoxylin and eosin staining based histopathological analysis; format: functional, organism-based; conditions: time 28.0 day
Rattus norvegicus [12] = assay: Antifibrotic activity in bleomycin-induced Sprague-Dawley rat lung fibrosis model assessed as decrease in lung fibrosis at 2.5 to 5 mg/kg, ip administered daily for 28 days by Masson's trichrome staining based analysis; format: functional, organism-based; conditions: dose 2.5-5 mg/kg, time 28.0 day
Rattus norvegicus [13] = assay: Antifibrotic activity in bleomycin-induced Sprague-Dawley rat lung fibrosis model assessed as suppression of TGF-beta1 level at 2.5 to 5 mg/kg, ip administered daily for 28 days by Western blot analysis; format: functional, organism-based; conditions: dose 2.5-5 mg/kg, time 28.0 day
Rattus norvegicus [14] = assay: Antifibrotic activity in bleomycin-induced Sprague-Dawley rat pulmonary fibrosis model assessed as decrease in relaxation time at 2.5 to 5 mg/kg, ip administered daily for 28 days; format: functional, organism-based; conditions: dose 2.5-5 mg/kg, time 28.0 day
[15] = target: T2, High affinity cAMP-specific and IBMX-insensitive 3',5'-cyclic phosphodiesterase 8A (Homo sapiens, UniProt O60658); assay: Inhibition of PDE8A1 (480 to 820 residues) (unknown origin) expressed in Escherichia coli BL21 using [3H]-cAMP as substrate measured for 15 mins by liquid scintillation counter method
T2 sequence (O60658 whole entry, the tested form may be a part): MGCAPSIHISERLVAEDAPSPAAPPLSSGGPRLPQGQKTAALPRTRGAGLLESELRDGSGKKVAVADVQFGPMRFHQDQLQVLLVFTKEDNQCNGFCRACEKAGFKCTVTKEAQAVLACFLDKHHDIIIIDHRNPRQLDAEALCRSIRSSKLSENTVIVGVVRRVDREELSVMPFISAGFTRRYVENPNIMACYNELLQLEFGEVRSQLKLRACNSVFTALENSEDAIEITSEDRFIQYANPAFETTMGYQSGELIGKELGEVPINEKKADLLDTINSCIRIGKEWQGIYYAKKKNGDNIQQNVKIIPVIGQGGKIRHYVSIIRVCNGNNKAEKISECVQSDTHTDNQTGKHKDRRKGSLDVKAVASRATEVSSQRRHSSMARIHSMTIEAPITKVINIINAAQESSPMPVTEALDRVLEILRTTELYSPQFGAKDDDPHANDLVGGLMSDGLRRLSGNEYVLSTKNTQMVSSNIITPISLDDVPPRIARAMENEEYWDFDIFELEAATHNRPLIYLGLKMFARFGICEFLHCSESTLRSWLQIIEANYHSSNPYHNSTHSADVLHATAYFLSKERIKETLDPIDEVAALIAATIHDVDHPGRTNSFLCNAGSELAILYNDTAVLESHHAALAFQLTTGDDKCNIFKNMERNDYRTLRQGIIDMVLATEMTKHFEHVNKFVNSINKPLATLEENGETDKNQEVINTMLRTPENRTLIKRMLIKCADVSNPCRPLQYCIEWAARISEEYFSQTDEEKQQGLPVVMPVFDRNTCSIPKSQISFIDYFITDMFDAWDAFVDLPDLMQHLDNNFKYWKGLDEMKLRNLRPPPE

[16] = target: T2, High affinity cAMP-specific and IBMX-insensitive 3',5'-cyclic phosphodiesterase 8A; assay: Inhibition of PDE8A (480 to 820 residues) (unknown origin) expressed in Escherichia coli BL21 using [3H]-cAMP as substrate at 10000 nM measured for 15 mins by liquid scintillation counter method
Rattus norvegicus [17] = assay: Antifibrotic activity in bleomycin-induced Sprague-Dawley rat pulmonary fibrosis model assessed as decrease in relaxation time at 150 mg/kg, po administered daily for 28 days; format: functional, organism-based; conditions: time 28.0 day
[18] = target: Dual specificity calcium/calmodulin-dependent 3',5'-cyclic nucleotide phosphodiesterase 1A (Homo sapiens, UniProt P54750); assay: Inhibition of PDE1A (142 to 552 residues) (unknown origin) expressed in Escherichia coli BL21 measured for 15 mins by liquid scintillation counter method
Rattus norvegicus [19] = assay: Antifibrotic activity in bleomycin-induced Sprague-Dawley rat pulmonary fibrosis model assessed as smaller lung foci at 5 mg/kg, ip administered daily for 28 days by H&E staining based histopathological analysis; format: functional, organism-based; conditions: time 28.0 day
[20] = target: High affinity 3',5'-cyclic-AMP phosphodiesterase 7A (Homo sapiens, UniProt Q13946); assay: Inhibition of PDE7A1 (130-482 residues) (unknown origin) expressed in Escherichia coli BL21 using [3H]-cAMP as substrate measured for 15 mins by liquid scintillation counter method
[21] = target: High affinity cGMP-specific 3',5'-cyclic phosphodiesterase 9A (Homo sapiens, UniProt O76083); assay: Inhibition of PDE9A2 (181 to 506 residues) (unknown origin) expressed in Escherichia coli BL21 using [3H]-cGMP as substrate measured for 15 mins by liquid scintillation counter method
High affinity cGMP-specific 3',5'-cyclic phosphodiesterase 9A, sequence (O76083 whole entry, the tested form may be a part): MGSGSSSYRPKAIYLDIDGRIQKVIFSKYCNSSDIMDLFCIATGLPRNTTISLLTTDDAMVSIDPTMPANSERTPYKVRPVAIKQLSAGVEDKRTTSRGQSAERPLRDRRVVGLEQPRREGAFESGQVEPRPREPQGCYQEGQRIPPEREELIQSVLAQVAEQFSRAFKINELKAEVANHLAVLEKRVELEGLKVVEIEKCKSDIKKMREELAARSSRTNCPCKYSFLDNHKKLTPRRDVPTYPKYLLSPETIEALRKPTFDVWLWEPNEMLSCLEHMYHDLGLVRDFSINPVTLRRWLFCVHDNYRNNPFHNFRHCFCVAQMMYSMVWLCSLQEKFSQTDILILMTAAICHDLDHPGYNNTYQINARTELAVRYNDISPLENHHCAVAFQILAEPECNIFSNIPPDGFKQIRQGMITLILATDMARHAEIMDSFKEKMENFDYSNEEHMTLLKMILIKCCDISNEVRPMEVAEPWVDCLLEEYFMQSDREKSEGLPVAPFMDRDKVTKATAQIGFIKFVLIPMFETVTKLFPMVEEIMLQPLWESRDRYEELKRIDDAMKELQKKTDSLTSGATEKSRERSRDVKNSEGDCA

Rattus norvegicus [22] = assay: Antifibrotic activity in bleomycin-induced Sprague-Dawley rat pulmonary fibrosis model assessed as decrease in number of lung foci at 5 mg/kg, ip administered daily for 28 days by H&E staining based histopathological analysis; format: functional, organism-based; conditions: time 28.0 day
[23] = target: T1, cGMP-inhibited 3',5'-cyclic phosphodiesterase 3A; assay: Inhibition of PDE3A (679 to 1087 residues) (unknown origin) expressed in Escherichia coli BL21 using [3H]-cAMP as substrate measured for 15 mins by liquid scintillation counter method
HLF = assay: Antifibrotic activity in TGF-beta induced HLF cell assessed as suppression of Col-I level at 10 uM incubated for 48 hrs by Western blot analysis; format: functional, cell-based; conditions: Homo sapiens
Rattus norvegicus [24] = assay: Antifibrotic activity in bleomycin-induced Sprague-Dawley rat pulmonary fibrosis model assessed as decrease in end-expiratory pause at 150 mg/kg, po administered daily for 28 days; format: functional, organism-based; conditions: time 28.0 day
Cytochrome P450 2C9 = Cytochrome P450 2C9 (Homo sapiens, UniProt P11712); assay: Inhibition of CYP2C9 in human liver microsomes at 25 uM in the presence of NADPH; format: ADME, Microsome

For `CC1=C(C(=O)O[C@H](C)c2ccccc2)C(c2ccc3c(cnn3C)c2)C(C(=O)O[C@H](C)c2ccccc2)=C(C)N1`, the Activity [1] was “Non-Toxic”, the IC50 [2] was 1310 nM and the IC50 [3] was > 40000 nM. The AUC(0-inf) [4] was 4590 ng·h/mL, the IC50 [5] was 619 nM and the Vd [6] was 3.81 L/kg. The Activity (Rattus norvegicus [7]) was “Active”, the inhibition [8] was < 50% and the Activity (Rattus norvegicus [9]) was “Active”. For the same compound, the Activity (Rattus norvegicus [10]) was “Active”, the Activity (Rattus norvegicus [11]) was “Active” and the Activity (Rattus norvegicus [12]) was “Active”. For the same compound, the Activity (Rattus norvegicus [13]) was “Active”, the Activity (Rattus norvegicus [14]) was “Active” and the IC50 [15] was > 10000 nM. The inhibition [16] was < 50%, the Activity (Rattus norvegicus [17]) was “Active” and the IC50 [18] was 145 nM. The Activity (Rattus norvegicus [19]) was “Active”, the IC50 [20] was 1400 nM and the IC50 [21] was > 10000 nM. For the same compound, the Activity (Rattus norvegicus [22]) was “Active”, the IC50 [23] was > 10000 nM and the Activity (HLF) was “Active”. The Activity (Rattus norvegicus [24]) was “Active” and the IC50 (Cytochrome P450 2C9) was 4600 nM.
